Tests used:
Assay type in all cases: cell-based
[1] = tested on: beneficial oral bacteria and pathogenic oral bacteria; test: Twenty-four hour optical density, overall prebiotic assessment; details: concentrations of 5, 10, 20 and 25 μmol/ml
Source text: Substrates that were able to increase the growth (or maximal growth density or extent of growth) of at least one of the above beneficial bacteria while not or only minimally increasing the growth (or maximal growth density) of the pathogenic bacteria are considered to be prebiotic compounds.
The extent of growth of the tested bacteria in response to selected saccharides (myo-inositol, D-lactitol, D-turanose and N-acetyl-D-mannosamine) was investigated by setting up growth curves in a nutritionally rich medium (brain heart infusion broth (BHI), Oxoid), over 24 hours. Late exponential growth phase liquid cultures were prepared by transferring the respective bacterium from blood agar plates to BHI and overnight incubation at 37° C. in an anaerobic atmosphere for A. viscosus, V. parvula, F. nucleatum, P. gingivalis, P. intermedia, T. forsythia, A. naeslundii, and C. sputigena, and in a 5% CO2 environment for S. salivarius, S. sanguinis, S. mitis, A. actinomycetemcomitans, S. mutans, S. sobrinus and S. gordonii. […]
(§1) For each combination of bacterium/saccharide, and for each of their respective controls (i.e. the particular bacterium in the nutritionally rich medium with no saccharide), the optical density was measured at 630 nm (OD630) at 0 h and 24 h (Thermo Scientific Multiskan Ascent). Additionally, the OD630 for combinations of bacterium/saccharides grown in a 5% CO2 environment were also measured every hour between 0 h and 9 h.
The experiment was carried out on three different days (thus providing 3 biological replicas) and on each day the experiment was carried out in quadruple (thus providing 4 technical replicas) for each combination of bacterium with saccharide and for each control. For each day and for each combination, the average (mean) of the values obtained (as detailed above) for the four technical replicas was calculated to provide a single value for each combination on each day. […]

Actinomyces naeslundii = test: Twenty-four hour optical density growth in BHI; details: A naeslundii
Procedure: (§2) The extent of growth of the tested bacteria in response to selected saccharides (myo-inositol, D-lactitol, D-turanose and N-acetyl-D-mannosamine) was investigated by setting up growth curves in a nutritionally rich medium (brain heart infusion broth (BHI), Oxoid), over 24 hours. Late exponential growth phase liquid cultures were prepared by transferring the respective bacterium from blood agar plates to BHI and overnight incubation at 37° C. in an anaerobic atmosphere for A. viscosus, V. parvula, F. nucleatum, P. gingivalis, P. intermedia, T. forsythia, A. naeslundii, and C. sputigena, and in a 5% CO2 environment for S. salivarius, S. sanguinis, S. mitis, A. actinomycetemcomitans, S. mutans, S. sobrinus and S. gordonii. Overnight cultures were transferred to BHI and adjusted to a concentration of 1×10^7 CFU/ml (colony forming units per ml) by measuring the optical density at 600 nm (OD600) (BioRad SmartSpec 3000). For each strain, 200 μl of the bacterial suspension was added to a 96-well plate containing 20 μl of the respective saccharides. Final concentrations of the saccharides were set to 5, 10, 20 and 25 μmol/ml. […] Plates were incubated as previously described.
as §1
(§3) The experiment was carried out on three different days (thus providing 3 biological replicas) and on each day the experiment was carried out in quadruple (thus providing 4 technical replicas) for each combination of bacterium with saccharide and for each control. For each day and for each combination, the average (mean) of the values obtained (as detailed above) for the four technical replicas was calculated to provide a single value for each combination on each day. The values shown in Tables 5a,b to 6a,b, below, are the average (mean) of the three single values obtained for each combination of bacterium with saccharide.

Actinomyces viscosus = test: Twenty-four hour optical density growth in BHI; details: A viscosus
Procedure: as §2, §1, §3

Fusobacterium nucleatum = test: Twenty-four hour optical density growth in BHI; details: F nucleatum
Procedure: as §2, §1, §3

Prevotella intermedia = test: Twenty-four hour optical density growth in BHI; details: P intermedia
Procedure: as §2, §1, §3

S. sanguinis = test: Twenty-four hour optical density growth in BHI
Procedure: as §2, §1, §3

Streptococcus mutans = test: Twenty-four hour optical density growth in BHI; details: S mutans
Procedure: as §2, §1, §3

Streptococcus gordonii = test: Twenty-four hour optical density growth in BHI; details: S gordonii
Procedure: as §2, §1, §3

Porphyromonas gingivalis = test: Twenty-four hour optical density growth in BHI; details: P gingivalis
Procedure: as §2, §1, §3

Streptococcus salivarius = test: Twenty-four hour optical density growth in BHI; details: S salivarius
Procedure: as §2, §1, §3

Veillonella parvula = test: Twenty-four hour optical density growth in BHI; details: V parvula
Procedure: as §2, §1, §3

Streptococcus mitis = test: Twenty-four hour optical density growth in BHI; details: S mitis
Procedure: as §2, §1, §3

[2] = tested on: Aggregatibacter actinomycetemcomitans; test: Twenty-four hour optical density growth in BHI; details: A actinomycetemcomitans
Procedure: as §2, §1, §3

Tannerella forsythia = test: Twenty-four hour optical density growth in BHI; details: T forsythia
Procedure: as §2, §1, §3

Capnocytophaga sputigena = test: Twenty-four hour optical density growth in BHI; details: C sputigena
Procedure: as §2, §1, §3

Streptococcus sobrinus = test: Twenty-four hour optical density growth in BHI; details: S sobrinus
Procedure: as §2, §1, §3

CC(=O)N[C@H](C=O)[C@@H](O)[C@H](O)[C@H](O)CO [N-acetyl-D-mannosamine, 2-acetamido-2-deoxy-D-mannose]
prebiotic effects (extent of growth, threshold value 1.25) [1]: exhibited prebiotic effects
extent of growth: maximal OD630 over 24 hr divided by maximal OD of control (control = 1) (Actinomyces naeslundii; 5 μmol/ml): 0.9820
extent of growth: maximal OD630 over 24 hr divided by maximal OD of control (control = 1) (Actinomyces naeslundii; 10 μmol/ml): 0.8708
extent of growth: maximal OD630 over 24 hr divided by maximal OD of control (control = 1) (Actinomyces naeslundii; 20 μmol/ml): 0.9716
extent of growth: maximal OD630 over 24 hr divided by maximal OD of control (control = 1) (Actinomyces naeslundii; 25 μmol/ml): 0.8535
extent of growth: maximal OD630 over 24 hr divided by maximal OD of control (control = 1) (Actinomyces viscosus; 5 μmol/ml): 0.8017
extent of growth: maximal OD630 over 24 hr divided by maximal OD of control (control = 1) (Actinomyces viscosus; 10 μmol/ml): 0.8753
extent of growth: maximal OD630 over 24 hr divided by maximal OD of control (control = 1) (Actinomyces viscosus; 20 μmol/ml): 0.9225
extent of growth: maximal OD630 over 24 hr divided by maximal OD of control (control = 1) (Actinomyces viscosus; 25 μmol/ml): 0.8824
extent of growth: maximal OD630 over 24 hr divided by maximal OD of control (control = 1) (Fusobacterium nucleatum; 5 μmol/ml): 0.9065
extent of growth: maximal OD630 over 24 hr divided by maximal OD of control (control = 1) (Fusobacterium nucleatum; 10 μmol/ml): 0.8477
extent of growth: maximal OD630 over 24 hr divided by maximal OD of control (control = 1) (Fusobacterium nucleatum; 20 μmol/ml): 0.9564
extent of growth: maximal OD630 over 24 hr divided by maximal OD of control (control = 1) (Fusobacterium nucleatum; 25 μmol/ml): 0.9193
extent of growth: maximal OD630 over 24 hr divided by maximal OD of control (control = 1) (Prevotella intermedia; 5 μmol/ml): 0.9530
extent of growth: maximal OD630 over 24 hr divided by maximal OD of control (control = 1) (Prevotella intermedia; 10 μmol/ml): 1.0261
extent of growth: maximal OD630 over 24 hr divided by maximal OD of control (control = 1) (Prevotella intermedia; 20 μmol/ml): 1.0229
extent of growth: maximal OD630 over 24 hr divided by maximal OD of control (control = 1) (Prevotella intermedia; 25 μmol/ml): 1.0494
extent of growth: maximal OD630 over 24 hr divided by maximal OD of control (control = 1) (S. sanguinis; 5 μmol/ml): 0.8350
extent of growth: maximal OD630 over 24 hr divided by maximal OD of control (control = 1) (S. sanguinis; 10 μmol/ml): 0.8644
extent of growth: maximal OD630 over 24 hr divided by maximal OD of control (control = 1) (S. sanguinis; 20 μmol/ml): 0.8219
extent of growth: maximal OD630 over 24 hr divided by maximal OD of control (control = 1) (S. sanguinis; 25 μmol/ml): 0.8122
extent of growth: maximal OD630 over 24 hr divided by maximal OD of control (control = 1) (Streptococcus mutans; 5 μmol/ml): 0.8669
extent of growth: maximal OD630 over 24 hr divided by maximal OD of control (control = 1) (Streptococcus mutans; 10 μmol/ml): 0.8670
extent of growth: maximal OD630 over 24 hr divided by maximal OD of control (control = 1) (Streptococcus mutans; 20 μmol/ml): 0.8300
extent of growth: maximal OD630 over 24 hr divided by maximal OD of control (control = 1) (Streptococcus mutans; 25 μmol/ml): 0.8283
extent of growth: maximal OD630 over 24 hr divided by maximal OD of control (control = 1) (Streptococcus gordonii; 5 μmol/ml): 0.9930
extent of growth: maximal OD630 over 24 hr divided by maximal OD of control (control = 1) (Streptococcus gordonii; 10 μmol/ml): 1.0254
extent of growth: maximal OD630 over 24 hr divided by maximal OD of control (control = 1) (Streptococcus gordonii; 20 μmol/ml): 0.9827
extent of growth: maximal OD630 over 24 hr divided by maximal OD of control (control = 1) (Streptococcus gordonii; 25 μmol/ml): 1.0015
extent of growth: maximal OD630 over 24 hr divided by maximal OD of control (control = 1) (Porphyromonas gingivalis; 5 μmol/ml): 0.8020
extent of growth: maximal OD630 over 24 hr divided by maximal OD of control (control = 1) (Porphyromonas gingivalis; 10 μmol/ml): 0.8427
extent of growth: maximal OD630 over 24 hr divided by maximal OD of control (control = 1) (Porphyromonas gingivalis; 20 μmol/ml): 0.9137
extent of growth: maximal OD630 over 24 hr divided by maximal OD of control (control = 1) (Porphyromonas gingivalis; 25 μmol/ml): 0.9419
extent of growth: maximal OD630 over 24 hr divided by maximal OD of control (control = 1) (Streptococcus salivarius; 5 μmol/ml): 0.8639
extent of growth: maximal OD630 over 24 hr divided by maximal OD of control (control = 1) (Streptococcus salivarius; 10 μmol/ml): 0.8849
extent of growth: maximal OD630 over 24 hr divided by maximal OD of control (control = 1) (Streptococcus salivarius; 20 μmol/ml): 0.8460
extent of growth: maximal OD630 over 24 hr divided by maximal OD of control (control = 1) (Streptococcus salivarius; 25 μmol/ml): 0.9251
extent of growth: maximal OD630 over 24 hr divided by maximal OD of control (control = 1) (Veillonella parvula; 5 μmol/ml): 1.0227
extent of growth: maximal OD630 over 24 hr divided by maximal OD of control (control = 1) (Veillonella parvula; 10 μmol/ml): 1.0174
extent of growth: maximal OD630 over 24 hr divided by maximal OD of control (control = 1) (Veillonella parvula; 20 μmol/ml): 1.0466
extent of growth: maximal OD630 over 24 hr divided by maximal OD of control (control = 1) (Veillonella parvula; 25 μmol/ml): 1.0213
extent of growth: maximal OD630 over 24 hr divided by maximal OD of control (control = 1) (Streptococcus mitis; 5 μmol/ml): 1.3409
extent of growth: maximal OD630 over 24 hr divided by maximal OD of control (control = 1) (Streptococcus mitis; 10 μmol/ml): 1.3866
extent of growth: maximal OD630 over 24 hr divided by maximal OD of control (control = 1) (Streptococcus mitis; 20 μmol/ml): 1.7155
extent of growth: maximal OD630 over 24 hr divided by maximal OD of control (control = 1) (Streptococcus mitis; 25 μmol/ml): 1.7409
extent of growth: maximal OD630 over 24 hr divided by maximal OD of control (control = 1) ([2]; 5 μmol/ml): 1.0637
extent of growth: maximal OD630 over 24 hr divided by maximal OD of control (control = 1) ([2]; 10 μmol/ml): 0.9102
extent of growth: maximal OD630 over 24 hr divided by maximal OD of control (control = 1) ([2]; 20 μmol/ml): 0.9405
extent of growth: maximal OD630 over 24 hr divided by maximal OD of control (control = 1) ([2]; 25 μmol/ml): 0.8614
extent of growth: maximal OD630 over 24 hr divided by maximal OD of control (control = 1) (Tannerella forsythia; 5 μmol/ml): 0.9742
extent of growth: maximal OD630 over 24 hr divided by maximal OD of control (control = 1) (Tannerella forsythia; 10 μmol/ml): 0.9715
extent of growth: maximal OD630 over 24 hr divided by maximal OD of control (control = 1) (Tannerella forsythia; 20 μmol/ml): 0.9706
extent of growth: maximal OD630 over 24 hr divided by maximal OD of control (control = 1) (Tannerella forsythia; 25 μmol/ml): 0.9451
extent of growth: maximal OD630 over 24 hr divided by maximal OD of control (control = 1) (Capnocytophaga sputigena; 5 μmol/ml): 0.9620
extent of growth: maximal OD630 over 24 hr divided by maximal OD of control (control = 1) (Capnocytophaga sputigena; 10 μmol/ml): 0.9635
extent of growth: maximal OD630 over 24 hr divided by maximal OD of control (control = 1) (Capnocytophaga sputigena; 20 μmol/ml): 0.9576
extent of growth: maximal OD630 over 24 hr divided by maximal OD of control (control = 1) (Capnocytophaga sputigena; 25 μmol/ml): 0.9554
extent of growth: maximal OD630 over 24 hr divided by maximal OD of control (control = 1) (Streptococcus sobrinus; 5 μmol/ml): 0.9307
extent of growth: maximal OD630 over 24 hr divided by maximal OD of control (control = 1) (Streptococcus sobrinus; 10 μmol/ml): 0.7794
extent of growth: maximal OD630 over 24 hr divided by maximal OD of control (control = 1) (Streptococcus sobrinus; 20 μmol/ml): 0.7737
extent of growth: maximal OD630 over 24 hr divided by maximal OD of control (control = 1) (Streptococcus sobrinus; 25 μmol/ml): 0.7857

Reference: patent publication US11419806B2, “Prebiotic oral care methods using a saccharide” (Colgate-Palmolive Company, priority 2013, dated 2022)
